Source: US10160755B2 (Plexxikon Inc., priority 2015, dated 2018)

What was measured:
FLT3-D835Y = molecular target: T1, FLT3-D835Y (Homo sapiens, UniProt P36888, D835Y); test: FLT3-D835Y biochemical kinase assay (AlphaScreen)
T1 construct: purchased Invitrogen PV3967
T1 sequence (P36888 27-993 D835Y): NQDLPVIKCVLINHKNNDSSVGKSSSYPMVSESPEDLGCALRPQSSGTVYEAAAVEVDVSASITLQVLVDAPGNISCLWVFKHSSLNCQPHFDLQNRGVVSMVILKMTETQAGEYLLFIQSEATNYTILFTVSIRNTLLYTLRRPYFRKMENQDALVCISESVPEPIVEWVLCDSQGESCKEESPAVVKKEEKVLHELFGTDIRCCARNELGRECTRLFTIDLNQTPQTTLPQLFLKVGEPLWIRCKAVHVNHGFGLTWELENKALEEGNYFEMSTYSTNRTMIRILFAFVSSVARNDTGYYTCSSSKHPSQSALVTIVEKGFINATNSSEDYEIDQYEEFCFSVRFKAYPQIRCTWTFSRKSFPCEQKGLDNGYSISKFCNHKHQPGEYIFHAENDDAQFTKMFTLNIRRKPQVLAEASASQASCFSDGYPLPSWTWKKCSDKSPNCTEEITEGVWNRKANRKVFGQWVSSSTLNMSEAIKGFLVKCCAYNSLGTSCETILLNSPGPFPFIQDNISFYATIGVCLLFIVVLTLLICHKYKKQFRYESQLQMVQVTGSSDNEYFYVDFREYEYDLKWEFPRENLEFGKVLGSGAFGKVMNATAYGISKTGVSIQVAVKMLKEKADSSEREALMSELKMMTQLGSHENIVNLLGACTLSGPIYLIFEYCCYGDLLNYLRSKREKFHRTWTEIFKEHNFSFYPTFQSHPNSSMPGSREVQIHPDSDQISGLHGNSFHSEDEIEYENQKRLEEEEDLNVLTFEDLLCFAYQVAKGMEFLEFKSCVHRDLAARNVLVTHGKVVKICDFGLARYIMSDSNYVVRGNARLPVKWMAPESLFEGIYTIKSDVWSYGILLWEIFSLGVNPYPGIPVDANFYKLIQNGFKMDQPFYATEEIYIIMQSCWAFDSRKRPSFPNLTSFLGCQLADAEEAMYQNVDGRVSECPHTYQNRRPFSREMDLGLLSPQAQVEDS
Outline: (§1)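 Recombinant enzyme phosphorylated biotin-poly(Glu4-Tyr) peptide (30 nM final); ATP final 10 μM for FLT3-D835Y, 100 μM for FLT3-ITD. AlphaScreen read-out: streptavidin donor and anti-phosphotyrosine (PY20) acceptor beads, 20 and 60 min at room temperature; inhibition seen as drop in 580 nm proximity signal; IC50 determined.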

FLT3-ITD = molecular target: T2, FLT3-ITD (Homo sapiens, UniProt P36888); test: FLT3-ITD biochemical kinase assay (AlphaScreen)
T2 construct: FLT3-ITD; Invitrogen #PV6190
T2 sequence (P36888 1-993): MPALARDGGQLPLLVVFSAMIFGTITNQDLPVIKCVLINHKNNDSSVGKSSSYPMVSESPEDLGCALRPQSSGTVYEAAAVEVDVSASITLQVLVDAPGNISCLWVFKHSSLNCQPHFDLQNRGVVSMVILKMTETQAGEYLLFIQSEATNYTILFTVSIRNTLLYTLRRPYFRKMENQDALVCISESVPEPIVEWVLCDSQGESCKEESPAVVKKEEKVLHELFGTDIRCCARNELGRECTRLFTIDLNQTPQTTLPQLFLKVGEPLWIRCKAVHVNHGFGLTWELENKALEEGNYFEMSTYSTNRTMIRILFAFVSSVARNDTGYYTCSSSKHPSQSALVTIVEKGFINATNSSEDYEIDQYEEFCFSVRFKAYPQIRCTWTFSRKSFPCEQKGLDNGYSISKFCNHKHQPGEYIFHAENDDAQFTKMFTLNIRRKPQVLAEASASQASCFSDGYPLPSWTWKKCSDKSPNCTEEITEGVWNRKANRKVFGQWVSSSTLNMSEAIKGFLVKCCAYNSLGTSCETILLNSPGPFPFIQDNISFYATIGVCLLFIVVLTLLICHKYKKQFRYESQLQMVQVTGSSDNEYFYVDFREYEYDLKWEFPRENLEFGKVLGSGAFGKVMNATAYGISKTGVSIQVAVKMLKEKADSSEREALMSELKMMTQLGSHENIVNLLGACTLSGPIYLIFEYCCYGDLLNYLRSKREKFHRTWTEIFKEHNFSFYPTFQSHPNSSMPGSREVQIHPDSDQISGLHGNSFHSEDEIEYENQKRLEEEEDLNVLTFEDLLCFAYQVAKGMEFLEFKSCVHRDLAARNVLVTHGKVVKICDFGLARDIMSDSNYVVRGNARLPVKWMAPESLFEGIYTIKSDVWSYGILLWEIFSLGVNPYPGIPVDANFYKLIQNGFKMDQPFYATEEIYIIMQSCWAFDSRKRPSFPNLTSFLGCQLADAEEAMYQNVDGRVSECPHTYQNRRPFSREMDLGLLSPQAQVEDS
Outline: as §1

Row | Compound | IC50 (FLT3-D835Y) [µM] | IC50 (FLT3-ITD) [µM]
1 | CC(C)N1CCOc2ccc(-c3c[nH]c4ncc(C5=CCN(C(=O)C6CC6)C5)nc34)cc21 [P-189, cyclopropyl-[3-[7-(4-isopropyl-2,3-dihydro-1,4-benzoxazin-6-yl)-5H-pyrrolo[2,3-b]pyrazin-2-yl]-2,5-dihydropyrrol-1-yl]methanone] | 0.0001 to 1 | 0.0001 to 1
2 | CN1CCN(c2ncc(-c3cnc4[nH]cc(-c5ccc6ncn(C(C)(C)C)c6c5)c4n3)cn2)CC1 [P-349, 7-(3-tert-butylbenzimidazol-5-yl)-2-[2-(4-methylpiperazin-1-yl)pyrimidin-5-yl]-5H-pyrrolo[2,3-b]pyrazine] | 0.0001 to 1 | 0.0001 to 1
3 | COc1cccc(-c2cnc3[nH]cc(-c4ccc5ncsc5c4)c3n2)c1 [P-158, 6-[2-(3-methoxyphenyl)-5H-pyrrolo[2,3-b]pyrazin-7-yl]-1,3-benzothiazole] | 0.0001 to 1 | 0.0001 to 1
4 | Cn1cnc2ccc(-c3c[nH]c4ncc(-c5cccc(C(=O)NC6CC6)c5)nc34)cc21 [P-147, N-cyclopropyl-3-[7-(3-methylbenzimidazol-5-yl)-5H-pyrrolo[2,3-b]pyrazin-2-yl]benzamide] | 0.0001 to 1 | 0.0001 to 1
5 | CC(C)S(=O)(=O)Nc1cccc(-c2cnc3[nH]cc(-c4ccc5ncn(C)c5c4)c3n2)c1 [P-152, N-[3-[7-(3-methylbenzimidazol-5-yl)-5H-pyrrolo[2,3-b]pyrazin-2-yl]phenyl]propane-2-sulfonamide] | 0.0001 to 1 | 0.0001 to 1
6 | CC(C)(C)n1cnc2ccc(-c3c[nH]c4ncc(-c5ccc(F)nc5)nc34)cc21 [P-360, 7-(3-tert-butylbenzimidazol-5-yl)-2-(6-fluoro-3-pyridyl)-5H-pyrrolo[2,3-b]pyrazine] | 0.0001 to 1 | 0.0001 to 1
7 | CC(C)S(=O)(=O)Nc1cccc(-c2cnc3[nH]cc(-c4ccc5ncn(C(C)(C)C)c5c4)c3c2)c1 [P-214, N-[3-[3-(3-tert-butylbenzimidazol-5-yl)-1H-pyrrolo[2,3-b]pyridin-5-yl]phenyl]propane-2-sulfonamide] | 0.0001 to 1 | 0.0001 to 1
8 | COc1cc(-c2cnc3[nH]cc(-c4ccc5ncsc5c4)c3n2)ccc1Cl [P-161, 6-[2-(4-chloro-3-methoxy-phenyl)-5H-pyrrolo[2,3-b]pyrazin-7-yl]-1,3-benzothiazole] | 0.0001 to 1 | 1 to 10
9 | O=C(C1CC1)N1CC=C(c2cnc3[nH]cc(-c4ccc5ncn(C6CCCNC6)c5c4)c3n2)C1 (centres unmarked) [P-137, cyclopropyl-[3-[7-[3-(3-piperidyl)benzimidazol-5-yl]-5H-pyrrolo[2,3-b]pyrazin-2-yl]-2,5-dihydropyrrol-1-yl]methanone] | 0.0001 to 1 | 0.0001 to 1
10 | N#Cc1cccc(-c2cnc3[nH]cc(-c4ccc5ncn(-c6ccc(F)cc6)c5c4)c3c2)c1 [P-201, 3-[3-[3-(4-fluorophenyl)benzimidazol-5-yl]-1H-pyrrolo[2,3-b]pyridin-5-yl]benzonitrile] | 0.0001 to 1 | 0.0001 to 1
11 | COc1cc(-c2cnc3[nH]cc(-c4ccc5ncn(C)c5c4)c3n2)ccc1Cl [P-149, 2-(4-chloro-3-methoxy-phenyl)-7-(3-methylbenzimidazol-5-yl)-5H-pyrrolo[2,3-b]pyrazine] | 0.0001 to 1 | 0.0001 to 1
12 | COc1cc(-c2cnc3[nH]cc(-c4ccc5c(c4)N(CC(F)(F)F)CCO5)c3n2)ccn1 [P-188, 6-(2-(2-methoxypyridin-4-yl)-5H-pyrrolo[2,3-b]pyrazin-7-yl)-4-(2,2,2-trifluoroethyl)-3,4-dihydro-2H-benzo[b][1,4]oxazine] | 0.0001 to 1 | 0.0001 to 1
13 | FC(F)(F)Oc1cccc(-c2cnc3[nH]cc(-c4ccc5ncn(C6CCCNC6)c5c4)c3c2)c1 (centres unmarked) [P-203, 1-(3-piperidyl)-6-[5-[3-(trifluoromethoxy)phenyl]-1H-pyrrolo[2,3-b]pyridin-3-yl]benzimidazole] | 0.0001 to 1 | 0.0001 to 1
